Assay results as given in the supplement of paper PMC10307832.

compound: CCOC(=O)CCNc1cc(N2CCc3ccccc3CC2)nc(-c2ccccn2)n1 [GSK-J4] + O=C(CCCCCCC(=O)Nc1ccccc1)NO [Vorinostat] (partner 1 µM); assay: relative viability (nuclei count vs DMSO), 5 days (fraction); higher = more cells survive; settings: first compound 5 µM
Summary of the method: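 Values are medians from duplicate plates. Each reflects relative viability, defined as the nuclei count of treated wells over that of vehicle wells. Lung cancer cell lines in 1536-well plates were pin-tool dosed one day after seeding with one drug alone or with a fixed anchor-drug dose plus five library-drug doses (not always all listed) in √10 steps, then fixed, stained and imaged at 4× after 5 days.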

| Cell Line | relative viability |
| --- | --- |
| NCI-H23 | 0.583 |
| EPLC-272H | 0.599 |
| NCI-H2126 | 0.872 |
| ChaGo-K-1 | 0.619 |
| HCC-44 | 1.09 |
| NCI-H1734 | 0.609 |
| LK-2 | 0.243 |
| NCI-H2228 | 0.823 |
| NCI-H2342 | 0.887 |
| LCLC-103H | 0.624 |
| LXF-289 | 0.874 |
| NCI-H358 | 0.671 |
| NCI-H322M | 1.11 |
| LC-2-ad | 0.325 |
| HCC-827 | 0.782 |
| SW 900 | 0.79 |
| NCI-H1648 | 0.868 |
| IA-LM | 1.34 |

same assay, conditions: first compound 15.81 µM

| Cell Line | relative viability |
| --- | --- |
| NCI-H522 | 0.651 |
| PC-14 | 0.63 |
| NCI-H1666 | 1.01 |
| NCI-H1755 | 0.577 |
| NCI-H2023 | 0.514 |
| HCC-78 | 0.363 |
| SK-LU-1 | 0.58 |
| PC-3 [JPC-3] | 0.624 |
| LOU-NH91 | 0.841 |
| NCI-H647 | 0.646 |
| NCI-H23 | 0.473 |
| EPLC-272H | 0.335 |
| NCI-H2126 | 0.572 |
| ChaGo-K-1 | 0.673 |
| HCC-44 | 1.14 |
| NCI-H1734 | 0.645 |

| Cell Line | relative viability |
| --- | --- |
| NCI-H650 | 0.319 |
| LK-2 | 0.126 |
| NCI-H2228 | 0.617 |
| NCI-H2342 | 1.09 |
| NCI-H1944 | 0.419 |
| HARA | 0.311 |
| COR-L23 | 0.413 |
| LCLC-103H | 0.675 |
| LXF-289 | 0.692 |
| NCI-H358 | 0.602 |
| NCI-H322M | 0.84 |
| LC-2-ad | 0.704 |
| HCC-827 | 0.774 |
| SW 900 | 0.408 |
| IA-LM | 0.711 |
| HCC-366 | 0.285 |

same assay, conditions: first compound 50 µM

| Cell Line | relative viability |
| --- | --- |
| NCI-H522 | 0.862 |
| PC-14 | 0.509 |
| NCI-H1666 | 0.737 |
| EKVX | 0.524 |
| NCI-H1755 | 0.536 |
| NCI-H2023 | 0.283 |
| HCC-78 | 0.587 |
| SK-LU-1 | 0.578 |
| PC-3 [JPC-3] | 0.725 |
| LOU-NH91 | 0.902 |
| NCI-H647 | 0.43 |
| NCI-H23 | 0.506 |
| EPLC-272H | 0.284 |
| NCI-H2126 | 0.567 |
| ChaGo-K-1 | 0.668 |
| HCC-44 | 1.16 |

| Cell Line | relative viability |
| --- | --- |
| NCI-H1734 | 0.5 |
| NCI-H650 | 0.266 |
| LK-2 | 0.579 |
| NCI-H2228 | 0.797 |
| NCI-H2342 | 1.02 |
| NCI-H1944 | 0.427 |
| HARA | 0.246 |
| COR-L23 | 0.361 |
| LCLC-103H | 0.546 |
| LXF-289 | 0.653 |
| NCI-H358 | 0.455 |
| NCI-H322M | 0.928 |
| LC-2-ad | 0.528 |
| HCC-827 | 0.787 |
| SW 900 | 0.483 |
